Measured values taken from patent publication US10611730B2, “Benzimidazolone and benzothiazolone compounds and their use as AMPA receptor modulators” (Janssen Pharmaceutica NV, priority 2015, dated 2020).

target: TARP γ8 dependent AMPA receptor (GluA1o-g8 fusion channel) (Homo sapiens (Human), UniProt P42261+Q8WXS5); assay: Calcium flux assay (FLIPR), HEK293 cells expressing GRIA1o-CACNG8 fusion; assay type: cell-based; conditions: inhibition of calcium flux after 15 μM glutamate
How it was run: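 Stable HEK293 clone expressing GluA1o-γ8 fusion (1:1 stoichiometry), loaded with Calcium-5/6 dye plus test compound; glutamate-evoked fluorescence normalized to control wells. Concentration-response fitted to four-parameter logistic, midpoint taken as inhibitory potency.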

TARP γ8 dependent AMPA receptor (GluA1o-g8 fusion channel), sequence (P42261 other isoform, or with tags, fused parts or gaps): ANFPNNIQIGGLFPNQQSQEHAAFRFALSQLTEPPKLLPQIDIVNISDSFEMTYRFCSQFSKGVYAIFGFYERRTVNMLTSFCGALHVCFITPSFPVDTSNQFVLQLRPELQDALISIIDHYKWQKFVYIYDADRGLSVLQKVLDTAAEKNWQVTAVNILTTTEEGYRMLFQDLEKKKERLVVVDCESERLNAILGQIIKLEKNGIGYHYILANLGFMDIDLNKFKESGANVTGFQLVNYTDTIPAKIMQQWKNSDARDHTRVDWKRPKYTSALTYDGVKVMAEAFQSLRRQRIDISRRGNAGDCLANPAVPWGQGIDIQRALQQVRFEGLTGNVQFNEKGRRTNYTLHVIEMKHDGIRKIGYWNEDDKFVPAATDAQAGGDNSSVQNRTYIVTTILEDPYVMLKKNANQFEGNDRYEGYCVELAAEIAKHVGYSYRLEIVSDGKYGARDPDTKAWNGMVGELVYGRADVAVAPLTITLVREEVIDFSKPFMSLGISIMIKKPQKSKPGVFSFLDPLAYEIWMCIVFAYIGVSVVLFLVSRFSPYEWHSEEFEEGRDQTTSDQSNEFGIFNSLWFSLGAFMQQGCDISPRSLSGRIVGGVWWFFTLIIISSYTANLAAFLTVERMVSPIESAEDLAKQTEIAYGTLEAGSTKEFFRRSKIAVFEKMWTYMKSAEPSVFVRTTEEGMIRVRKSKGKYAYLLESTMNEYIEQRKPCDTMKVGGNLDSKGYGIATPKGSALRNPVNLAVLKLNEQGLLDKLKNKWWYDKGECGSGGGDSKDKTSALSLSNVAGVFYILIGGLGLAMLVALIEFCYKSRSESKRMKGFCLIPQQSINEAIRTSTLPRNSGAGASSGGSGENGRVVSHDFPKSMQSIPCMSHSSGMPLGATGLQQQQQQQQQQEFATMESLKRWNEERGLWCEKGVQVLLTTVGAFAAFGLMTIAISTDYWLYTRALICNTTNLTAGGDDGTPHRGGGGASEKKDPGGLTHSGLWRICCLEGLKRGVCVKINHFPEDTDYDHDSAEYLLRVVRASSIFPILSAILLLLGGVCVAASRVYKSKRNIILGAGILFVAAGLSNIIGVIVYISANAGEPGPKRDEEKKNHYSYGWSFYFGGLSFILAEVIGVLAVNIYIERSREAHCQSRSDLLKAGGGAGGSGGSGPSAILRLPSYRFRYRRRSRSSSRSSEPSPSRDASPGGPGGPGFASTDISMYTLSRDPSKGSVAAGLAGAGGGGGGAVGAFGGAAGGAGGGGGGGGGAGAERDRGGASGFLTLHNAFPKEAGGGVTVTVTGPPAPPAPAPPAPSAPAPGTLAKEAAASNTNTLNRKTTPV

| Structure (SMILES) | GluR1-γ8 pIC50 |
| --- | --- |
| O=c1[nH]c2ccc(-c3c(Cl)cccc3OC(F)(F)F)cc2s1 [Example 76, 6-[2-Chloro-6-(trifluoromethoxy)phenyl]-3H-1,3-benzothiazol-2-one] | 8.6 |

same assay, conditions: inhibition of calcium flux after 15 μM glutamate, read-out: GluR1-γ8 pIC50 (converted)

| Structure (SMILES) | IC50 [nM] |
| --- | --- |
| CC(C)c1ccccc1-c1ccc2[nH]c(=O)[nH]c2c1 [Example 6, 5-(2-Isopropylphenyl)-1,3-dihydrobenzimidazol-2-one] | 316 |
| O=c1[nH]c2ccc(-c3ccccc3Cc3ccccc3)cc2[nH]1 [Example 59, 5-(2-Benzylphenyl)-1,3-dihydrobenzimidazol-2-one] | 316 |
| O=c1[nH]c2cc(-c3c(Cl)cccc3OC(F)(F)F)cc(F)c2[nH]1 [Example 214, 6-(2-chloro-6-(trifluoromethoxy)phenyl)-4-fluoro-1,3-dihydro-2H-benzo[d]imidazol-2-one] | 2.51 |
| COCCn1cc(-c2cccc(Cl)c2-c2ccc3[nH]c(=O)[nH]c3c2)cn1 [Example 172, 5-[2-Chloro-6-[1-(2-methoxyethyl)pyrazol-4-yl]phenyl]-1,3-dihydrobenzimidazol-2-one] | 2000 |
| N#CC1(c2cccc(Cl)c2-c2ccc3[nH]c(=O)[nH]c3c2)CC1 [Example 128, 1-[3-Chloro-2-(2-oxo-1,3-dihydrobenzimidazol-5-yl)phenyl]cyclopropanecarbonitrile] | 398 |
| Cn1cc(-c2cccc(-c3ccc4[nH]c(=O)sc4c3)c2Cl)cn1 [Example 212, 6-(2-Chloro-3-(1-methyl-1H-pyrazol-4-yl)phenyl)benzo[d]thiazol-2(3H)-one] | 200 |
| O=C(Nc1ccccc1)c1ccc(Cl)c(-c2ccc3[nH]c(=O)[nH]c3c2)c1 [Example 83, 4-Chloro-3-(2-oxo-1,3-dihydrobenzimidazol-5-yl)-N-phenyl-benzamide] | 2510 |
| CC(C)(C)OC(=O)N1CC(Oc2cccc(Cl)c2-c2ccc3[nH]c(=O)[nH]c3c2)C1 [Example 100, tert-Butyl 3-[3-chloro-2-(2-oxo-1,3-dihydrobenzimidazol-5-yl)phenoxy]azetidine-1-carboxylate] | 316 |
| O=c1[nH]c2ccc(-c3ccc(OC(F)(F)F)cc3Cl)cc2[nH]1 [Example 30, 5-[2-Chloro-4-(trifluoromethoxy)phenyl]-1,3-dihydrobenzimidazol-2-one] | 1580 |
| O=c1[nH]c2ccc(-c3c(Cl)cccc3NCc3ccco3)cc2[nH]1 [Example 86, 5-[2-Chloro-6-(2-furylmethylamino)phenyl]-1,3-dihydrobenzimidazol-2-one] | 158 |
| COc1cccc(OC(C)C(F)(F)F)c1-c1ccc2[nH]c(=O)[nH]c2c1 (racemic) [Example 121, (±)-5-[2-Methoxy-6-(2,2,2-trifluoro-1-methyl-ethoxy)phenyl]-1,3-dihydrobenzimidazol-2-one] | 158 |
| O=C(c1ccc(Cl)c(-c2ccc3[nH]c(=O)[nH]c3c2)c1)N1CCCCC1 [Example 85, 5-[2-Chloro-5-(piperidine-1-carbonyl)phenyl]-1,3-dihydrobenzimidazol-2-one] | 5010 |
| N#CCc1cccc(-c2ccc(F)cc2)c1-c1ccc2[nH]c(=O)[nH]c2c1 [Example 135, 2-[3-(4-Fluorophenyl)-2-(2-oxo-1,3-dihydrobenzimidazol-5-yl)phenyl]acetonitrile] | 20 |
| Cc1c(CN2CC[C@H](O)[C@H](F)C2)cccc1-c1ccc2[nH]c(=O)[nH]c2c1 (stereo in doubt) [Example 159, (3R,4S)-5-[3-[[3-Fluoro-4-hydroxy-1-piperidyl]methyl]-2-methyl-phenyl]-1,3-dihydrobenzimidazol-2-one] | 6310 |
| Cc1c(-c2ccc3[nH]c(=O)[nH]c3c2)cccc1-c1noc(C2CC2)n1 [Example 73, 5-[3-(5-Cyclopropyl-1,2,4-oxadiazol-3-yl)-2-methyl-phenyl]-1,3-dihydrobenzimidazol-2-one] | 31.6 |
| Cc1c(CN2CCN(C(=O)OC(C)(C)C)CC2)cccc1-c1ccc2[nH]c(=O)[nH]c2c1 [Example 155, tert-Butyl 4-[[2-methyl-3-(2-oxo-1,3-dihydrobenzimidazol-5-yl)phenyl]methyl]piperazine-1-carboxylate] | 316 |
| Cc1c(-c2ccc3[nH]c(=O)sc3c2)cccc1-c1nc(C2CC2)no1 [Example 202, 6-[3-(3-Cyclopropyl-1,2,4-oxadiazol-5-yl)-2-methyl-phenyl]-3H-1,3-benzothiazol-2-one] | 3980 |
| O=c1[nH]c2ccc(-c3c(F)cccc3OCc3ccccc3)cc2[nH]1 [Example 26, 5-(2-Benzyloxy-6-fluoro-phenyl)-1,3-dihydrobenzimidazol-2-one] | 100 |
| Cc1nc(-c2cccc(-c3ccc4[nH]c(=O)sc4c3)c2C)no1 [Example 72, 6-[2-Methyl-3-(5-methyl-1,2,4-oxadiazol-3-yl)phenyl]-3H-1,3-benzothiazol-2-one] | 794 |
| N#CCc1cccc(-c2ccccc2F)c1-c1ccc2[nH]c(=O)[nH]c2c1 [Example 136, 2-[3-(2-Fluorophenyl)-2-(2-oxo-1,3-dihydrobenzimidazol-5-yl)phenyl]acetonitrile] | 158 |
| CC(C)Oc1cccc(-c2ccc3[nH]c(=O)[nH]c3c2)c1C#N [Example 62, 2-Isopropoxy-6-(2-oxo-1,3-dihydrobenzimidazol-5-yl)benzonitrile] | 200 |
| Cc1c(C(=O)NC2CC2)cccc1-c1ccc2[nH]c(=O)[nH]c2c1 [Example 80, N-Cyclopropyl-2-methyl-3-(2-oxo-1,3-dihydrobenzimidazol-5-yl)benzamide] | 3980 |

Further lines, results first:

| IC50 [nM] | Structure (SMILES) |
| --- | --- |
| 316 | N#CCOc1cccc(Cl)c1-c1ccc2[nH]c(=O)[nH]c2c1 [Example 97, 2-[3-Chloro-2-(2-oxo-1,3-dihydrobenzimidazol-5-yl)phenoxy]acetonitrile] |
| 63.1 | O=c1[nH]c2ccc(-c3c(Cl)cccc3Cl)cc2[nH]1 [Example 49, 5-(2,6-Dichlorophenyl)-1,3-dihydrobenzimidazol-2-one] |
| 2000 | CC(C)Oc1c(Cl)cccc1-c1ccc2[nH]c(=O)[nH]c2c1 [Example 115, 5-(3-Chloro-2-isopropoxy-phenyl)-1,3-dihydrobenzimidazol-2-one] |
| 398 | COc1cncc(-c2cccc(Cl)c2-c2ccc3[nH]c(=O)[nH]c3c2)c1 [Example 168, 5-[2-Chloro-6-(5-methoxy-3-pyridyl)phenyl]-1,3-dihydrobenzimidazol-2-one] |
| 63.1 | O=c1[nH]c2ccc(-c3c(Cl)cccc3-c3cncc(F)c3)cc2[nH]1 [Example 166, 5-[2-Chloro-6-(5-fluoro-3-pyridyl)phenyl]-1,3-dihydrobenzimidazol-2-one] |
| 794 | Cc1ccnc(Cl)c1-c1ccc2[nH]c(=O)[nH]c2c1 [Example 70, 5-(2-Chloro-4-methyl-3-pyridyl)-1,3-dihydrobenzimidazol-2-one] |
| 251 | O=c1[nH]c2ccc(-c3c(F)cccc3Cl)cc2[nH]1 [Example 53, 5-(2-Chloro-6-fluoro-phenyl)-1,3-dihydrobenzimidazol-2-one] |
| 398 | Cc1ccc(C)c(-c2ccc3[nH]c(=O)[nH]c3c2)c1 [Example 21, 5-(2,5-Dimethylphenyl)-1,3-dihydrobenzimidazol-2-one] |
| 63.1 | O=c1[nH]c2ccc(-c3c(Cl)cccc3OCC(F)F)cc2[nH]1 [Example 96, 5-[2-Chloro-6-(2,2-difluoroethoxy)phenyl]-1,3-dihydrobenzimidazol-2-one] |
| 794 | Cc1noc(C)c1-c1cccc(Cl)c1-c1ccc2[nH]c(=O)[nH]c2c1 [Example 174, 5-[2-Chloro-6-(3,5-dimethylisoxazol-4-yl)phenyl]-1,3-dihydrobenzimidazol-2-one] |
| 794 | Cc1cc(Cl)cc(C)c1-c1ccc2[nH]c(=O)[nH]c2c1 [Example 37, 5-(4-Chloro-2,6-dimethyl-phenyl)-1,3-dihydrobenzimidazol-2-one] |
| 20 | O=c1[nH]c2ccc(-c3c(Cl)cccc3-c3ccccc3)cc2[nH]1 [Example 162, 5-(2-Chloro-6-phenyl-phenyl)-1,3-dihydrobenzimidazol-2-one] |
| 31.6 | C=Cc1cccc(Cl)c1-c1ccc2[nH]c(=O)[nH]c2c1 [Example 161, 5-(2-Chloro-6-vinyl-phenyl)-1,3-dihydrobenzimidazol-2-one] |
| 251 | Cc1cccc(F)c1-c1ccc2[nH]c(=O)[nH]c2c1 [Example 54, 5-(2-Fluoro-6-methyl-phenyl)-1,3-dihydrobenzimidazol-2-one] |
| 631 | O=c1[nH]c2ccc(-c3ccccc3Cl)cc2[nH]1 [Example 17, 5-(2-Chlorophenyl)-1,3-dihydrobenzimidazol-2-one] |
| 31.6 | O=c1[nH]c2ccc(-c3c(Cl)cccc3OC(F)F)cc2[nH]1 [Example 94, 5-[2-Chloro-6-(difluoromethoxy)phenyl]-1,3-dihydrobenzimidazol-2-one] |
| 12.6 | CC(C#N)c1cccc(Cl)c1-c1ccc2[nH]c(=O)[nH]c2c1 (racemic) [Example 126, (±)-2-[3-Chloro-2-(2-oxo-1,3-dihydrobenzimidazol-5-yl)phenyl]propanenitrile] |
| 1260 | Cc1ccccc1-c1ccc2[nH]c(=O)[nH]c2c1 [Example 3, 5-(o-Tolyl)-1,3-dihydrobenzimidazol-2-one] |
